Experimental data as given in PMC5642506 (Oncotarget, 2017).
Where two headings read alike, the source gives them in different places.

What was measured:
[1] = tested on: pretreated nonsquamous lung cancer; design: method as in PMID 27697581; conditions: cited from earlier work
[2] = tested on: pretreated EGFR wild type NSCLC; design: method as in PMID 27825638; conditions: cited from earlier work
[3] = Treatment delivery, dose intensity, discontinuation; assay type: in vivo, human (patients)
Experimental: (§1) In this dose-finding phase I trial, escalating doses of foretinib were added to standard dose erlotinib as continuous daily dosing. Patients were permitted to remain on study treatment until the development of disease progression, unacceptable toxicity or withdrawal of consent. To facilitate pharmacokinetic studies and ensure tolerability of standard therapy, patients received erlotinib alone daily for 14 days during cycle 1, and foretinib was initiated on day 15, cycle 1 if erlotinib was well tolerated. Daily dosing for both agents thereafter was continuous.

[4] = Pharmacokinetic analyses (plasma, non-compartmental); assay type: in vivo, human (patients)
Experimental: Patients underwent history and physical examination, performance status, measurement of vital signs, routine hematology and biochemistry studies, thyroid studies and tumor imaging with computed tomography scans at baseline. Blood pressure monitoring and bloodwork was repeated weekly during cycle 1 and then on day 1 of each subsequent cycle. Patients were assessed on day 1 of each subsequent cycle and as needed for toxicity management. Tumor assessment with imaging was performed at every second cycle (8 weeks). Urinalysis was performed on day 1 of each cycle, ophthalmologic examination every 12 weeks, and pharmacokinetic sampling on day 14 and 28 of cycle 1.
Patients were required not to smoke or chew tobacco products for at least 14 days prior to study entry, and to abstain at least until the completion of pharmacokinetic sampling on day 28 of cycle 1.

[5] = Dose escalation: DLT and recommended phase II dose; design: species or system human (patients); conditions: human, in vivo
Experimental: as §1
Toxicity was evaluated continuously according to the Common Terminology Criteria for Adverse Events (CTCAE), Version 4.0. […] If 1/3 experienced DLT, at least 3 additional patients were treated for a total of 6 evaluable patients treated at that dose level. If 2/3 or 2/6 patients experienced DLT, dose escalation was to be stopped and that dose declared the maximum tolerated dose (MTD), with the next lower dose to be declared the recommended phase II dose for foretinib in combination with erlotinib. While designed as a 3+3 dose escalation study, 3+4 was allowed to ensure that there would be a minimum of 3 evaluable patients without having to reopen a cohort to replace a patient. Intra-patient dose escalation was not allowed. […]

[6] = tested on: EGFR mutant lung cancer cells with upregulated HGF and increased MET copy number; design: method as in earlier work; conditions: preclinical studies; cited from earlier work
[7] = Erlotinib D14, DL1 erlotinib 100 mg daily alone, N=6
[8] = Erlotinib D14, DL2 erlotinib 150 mg daily alone, N=9
[9] = Erlotinib D14, DL3 erlotinib 150 mg daily alone, N=7
[10] = Erlotinib D28, DL1 erlotinib 100 mg + foretinib 30 mg daily, N=7
[11] = Erlotinib D28, DL2 erlotinib 150 mg + foretinib 30 mg daily, N=11
[12] = Erlotinib D28, DL3 erlotinib 150 mg + foretinib 45 mg daily, N=6
[13] = human, plasma, oral, 100 mg, Erlotinib D14, DL1 erlotinib 100 mg daily alone, N=6
[14] = human, plasma, oral, 150 mg, Erlotinib D14, DL2 erlotinib 150 mg daily alone, N=9
[15] = human, plasma, oral, 150 mg, Erlotinib D14, DL3 erlotinib 150 mg daily alone, N=7
[16] = human, plasma, oral, Erlotinib D28, DL1 erlotinib 100 mg + foretinib 30 mg daily, N=7
[17] = human, plasma, oral, Erlotinib D28, DL2 erlotinib 150 mg + foretinib 30 mg daily, N=11
[18] = human, plasma, oral, Erlotinib D28, DL3 erlotinib 150 mg + foretinib 45 mg daily, N=6
[19] = Foretinib D28, DL1 foretinib 30 mg + erlotinib 100 mg daily, N=7
[20] = Foretinib D28, DL2 foretinib 30 mg + erlotinib 150 mg daily, N=11
[21] = Foretinib D28, DL3 foretinib 45 mg + erlotinib 150 mg daily, N=6
[22] = human, plasma, oral, Foretinib D28, DL1 foretinib 30 mg + erlotinib 100 mg daily, N=7
[23] = human, plasma, oral, Foretinib D28, DL2 foretinib 30 mg + erlotinib 150 mg daily, N=11
[24] = human, plasma, oral, Foretinib D28, DL3 foretinib 45 mg + erlotinib 150 mg daily, N=6

C[C@@H](Oc1cc(-c2cnn(C3CCNCC3)c2)cnc1N)c1c(Cl)ccc(F)c1Cl [crizotinib]
RP2D, crizotinib ([1]; BID, plus erlotinib 100 mg daily): 150 mg

C#Cc1cccc(Nc2ncnc3cc(OCCOC)c(OCCOC)cc23)c1 [erlotinib]
PFS [2]: 1.8 months | RP2D, erlotinib ([1]; daily, plus crizotinib 150 mg BID): 100 mg | erlotinib exposure, pharmacokinetic interaction ([1]; with crizotinib): increased erlotinib exposure | % receiving >=90% planned dose intensity, Erlotinib ([3]; DL1 (N=9), 30/100 mg): 78% | % receiving >=90% planned dose intensity, Erlotinib ([3]; DL2 (n=15), 30/150 mg): 40% | % receiving >=90% planned dose intensity, Erlotinib ([3]; DL3 (N=7), 45/150 mg): 43% | Cavg [4, 7]: 1254 (SD 622) ng/mL | Clast [4, 7]: 1106 (SD 710) ng/mL | Cmax [4, 7]: 1719 (SD 624) ng/mL | Cmax Dose Norm [4, 7]: 17.2 (SD 6.24) ng/mL/mg | Cmin [4, 7]: 815 (SD 641) ng/mL | Tmin [4, 7]: 4.17 (SD 9.71) hr | Cavg [4, 8]: 1466 (SD 507) ng/mL | Clast [4, 8]: 1137 (SD 419) ng/mL | Cmax [4, 8]: 2335 (SD 770) ng/mL | Cmax Dose Norm [4, 8]: 15.6 (SD 5.13) ng/mL/mg | Cmin [4, 8]: 1047 (SD 437) ng/mL | Tmin [4, 8]: 13.33 (SD 12.65) hr | Cavg [4, 9]: 1548 (SD 621) ng/mL | Clast [4, 9]: 1247 (SD 565) ng/mL | Cmax Dose Norm [4, 9]: 14.91 (SD 4.14) ng/mL/mg | Cmin [4, 9]: 1027 (SD 507) ng/mL | Tmin [4, 9]: 4.71 (SD 8.77) hr | Cavg [4, 10]: 1497 (SD 975) ng/mL | Clast [4, 10]: 1300 (SD 861.44) ng/mL | Cmax [4, 10]: 2387 (SD 1707) ng/mL | Cmax Dose Norm [4, 10]: 23.87 (SD 17.07) ng/mL/mg | Cmin [4, 10]: 1092 (SD 894) ng/mL | Tmin [4, 10]: 11.2 (SD 12.07) hr | Cavg [4, 11]: 1579 (SD 643) ng/mL | Clast [4, 11]: 1343 (SD 687) ng/mL | Cmax Dose Norm [4, 11]: 17.64 (SD 6.49) ng/mL/mg | Cmin [4, 11]: 1293 (SD 688) ng/mL | Tmin [4, 11]: 13.27 (SD 12.34) hr | AUCt [4, 12]: 40765 (SD 16673) ng*hr/mL | Cavg [4, 12]: 1699 (SD 695) ng/mL | Clast [4, 12]: 1283 (SD 697) ng/mL | Cmax Dose Norm [4, 12]: 16.48 (SD 4.78) ng/mL/mg | Cmin [4, 12]: 1244 (SD 725) ng/mL | Tmin [4, 12]: 16.17 (SD 12.14) hr | AUC(0-t) [4, 13]: 30100 ng·h/mL | Tmax [4, 13]: 7.67 h | clearance [4, 13]: 28.6 mL/min | AUC(0-t) [4, 14]: 35200 ng·h/mL | Tmax [4, 14]: 2.22 h | clearance [4, 14]: 85.4 mL/min | AUC(0-t) [4, 15]: 35500 ng·h/mL | Tmax [4, 15]: 3.86 h | clearance [4, 15]: 79.9 mL/min | Cmax ([4]; human, plasma, oral, 150 mg, Erlotinib D14, DL3 erlotinib 150 mg daily alone, N=7, read-out: Cmax): 2240 ng/mL | AUC(0-t) [4, 16]: 35900 ng·h/mL | Tmax [4, 16]: 2.29 h | clearance [4, 16]: 33.9 mL/min | AUC(0-t) [4, 17]: 36200 ng·h/mL | Tmax [4, 17]: 2.64 h | clearance [4, 17]: 76.1 mL/min | Tmax [4, 18]: 2.33 h | clearance [4, 18]: 76.2 mL/min | Cmax ([4]; human, plasma, oral, Erlotinib D28, DL3 erlotinib 150 mg + foretinib 45 mg daily, N=6, read-out: Cmax): 2470 ng/mL | recommended phase II dose, erlotinib [5]: 150 mg

COc1cc2c(Oc3ccc(NC(=O)C4(C(=O)Nc5ccc(F)cc5)CC4)cc3F)ccnc2cc1OCCCN1CCOCC1 [foretinib]
% receiving >=90% planned dose intensity, Foretinib Cycle 1 ([3]; DL1 (N=9), 30/100 mg): 100% | % receiving >=90% planned dose intensity, Foretinib Cycle >= 2 ([3]; DL1 (N=9), 30/100 mg): 50% | % receiving >=90% planned dose intensity, Foretinib Cycle 1 ([3]; DL2 (n=15), 30/150 mg): 67% | % receiving >=90% planned dose intensity, Foretinib Cycle >= 2 ([3]; DL2 (n=15), 30/150 mg): 31% | % receiving >=90% planned dose intensity, Foretinib Cycle 1 ([3]; DL3 (N=7), 45/150 mg): 86% | % receiving >=90% planned dose intensity, Foretinib Cycle >= 2 ([3]; DL3 (N=7), 45/150 mg): 0 | Cavg [4, 19]: 30.35 (SD 9.23) ng/mL | Clast [4, 19]: 27.29 (SD 10.66) ng/mL | Cmax Dose Norm [4, 19]: 1.45 (SD 0.59) ng/mL/mg | Cmin [4, 19]: 22.79 (SD 7.74) ng/mL | Tmin [4, 19]: 12.29 (SD 11.34) hr | Cavg [4, 20]: 29.17 (SD 13.58) ng/mL | Clast [4, 20]: 24.12 (SD 9.34) ng/mL | Cmax Dose Norm [4, 20]: 1.49 (SD 0.74) ng/mL/mg | Cmin [4, 20]: 22.47 (SD 10.61) ng/mL | Tmin [4, 20]: 13.36 (SD 12.23) hr | Cavg [4, 21]: 42.07 (SD 17.31) ng/mL | Clast [4, 21]: 34.22 (SD 17.3) ng/mL | Cmax Dose Norm [4, 21]: 1.21 (SD 0.4) ng/mL/mg | Cmin [4, 21]: 31.96 (SD 18.16) ng/mL | Tmin [4, 21]: 12.0 (SD 13.15) hr | AUC(0-t) [4, 22]: 728 ng·h/mL | Tmax [4, 22]: 3.14 h | clearance [4, 22]: 419 mL/min | Cmax ([4]; human, plasma, oral, Foretinib D28, DL1 foretinib 30 mg + erlotinib 100 mg daily, N=7, read-out: Cmax): 43.4 ng/mL | AUC(0-t) [4, 23]: 681 ng·h/mL | Tmax [4, 23]: 3.55 h | clearance [4, 23]: 492 mL/min | Cmax ([4]; human, plasma, oral, Foretinib D28, DL2 foretinib 30 mg + erlotinib 150 mg daily, N=11, read-out: Cmax): 44.8 ng/mL | AUC(0-t) [4, 24]: 1010 ng·h/mL | Tmax [4, 24]: 3.5 h | clearance [4, 24]: 829 mL/min | Cmax ([4]; human, plasma, oral, Foretinib D28, DL3 foretinib 45 mg + erlotinib 150 mg daily, N=6, read-out: Cmax): 55.9 ng/mL | sensitivity when added to erlotinib [6]: significantly increases sensitivity | recommended phase II dose, foretinib [5]: 30 mg
